Measurements reported in patent publication US6514955B1, “Multi-faceted method to repress reproduction of latent viruses in humans and animals” (HIV Diagnostics, Inc., priority 1993, dated 2003).

Assays:
[1] = cited from earlier work
NADPH oxidase = NADPH oxidase (Homo sapiens, UniProt P04839); conditions: cited from earlier work
hybridoma macrophages = assay: Oxidant release in LPS or interferon activated hybridoma macrophages; type: cell-based
Source text: PMA activates the oxidative burst. The oxidant detected is the same oxidant seen in Kupfer liver cells and lung macrophages: peroxynitrite.

Chain of NADPH oxidase (P04839 2-570 limits assumed): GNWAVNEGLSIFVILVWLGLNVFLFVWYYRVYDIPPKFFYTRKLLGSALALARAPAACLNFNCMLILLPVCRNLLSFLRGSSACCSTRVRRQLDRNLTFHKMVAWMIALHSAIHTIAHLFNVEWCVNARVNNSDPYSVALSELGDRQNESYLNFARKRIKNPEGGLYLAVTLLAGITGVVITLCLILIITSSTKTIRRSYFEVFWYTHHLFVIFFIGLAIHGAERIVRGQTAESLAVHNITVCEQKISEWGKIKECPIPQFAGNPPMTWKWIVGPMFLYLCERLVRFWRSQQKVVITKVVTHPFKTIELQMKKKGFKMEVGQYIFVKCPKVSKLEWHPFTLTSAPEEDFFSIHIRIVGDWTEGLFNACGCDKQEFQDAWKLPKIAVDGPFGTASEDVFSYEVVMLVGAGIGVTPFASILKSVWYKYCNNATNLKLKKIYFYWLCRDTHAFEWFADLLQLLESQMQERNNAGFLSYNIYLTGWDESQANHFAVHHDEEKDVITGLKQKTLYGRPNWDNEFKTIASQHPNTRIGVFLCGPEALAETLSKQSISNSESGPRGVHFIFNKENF
Chain of NADPH oxidase (P13498 2-195 partner limits assumed): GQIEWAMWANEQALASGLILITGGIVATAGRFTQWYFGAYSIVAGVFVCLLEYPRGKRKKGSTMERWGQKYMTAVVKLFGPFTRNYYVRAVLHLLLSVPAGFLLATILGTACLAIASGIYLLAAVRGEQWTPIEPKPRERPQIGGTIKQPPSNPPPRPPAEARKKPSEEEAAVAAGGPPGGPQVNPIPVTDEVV

## O=C1NC(C(=O)O)CS1 (stereo not shown) [2-oxo-4-thiazolidene carboxylic acid]
[1]; in vivo, po
  Oral doses administered without toxicity: 0.15 to 0.45 mmol/kg

## CC(=O)N[C@@H](CS)C(=O)O [N-acetyl cysteine]
[1]; man, daily
  Daily dose usable without toxic side effects: Up to 40 mg per kilogram of body weight

## c1ccc2c(c1)[I+]c1ccccc1-2 [diphenylene iodonium]
NADPH oxidase
  Concentration printed for NADPH oxidase inhibitor: 15 nM

## CCCCCCCCCCCCCC(=O)O[C@@H]1[C@@H](C)[C@@]2(O)[C@@H](C=C(CO)C[C@]3(O)C(=O)C(C)=C[C@@H]23)[C@@H]2C(C)(C)[C@]12OC(C)=O [phorbol myristate acetate]
Hybridoma macrophages
  Stimulation of oxidant (peroxynitrite) produced: about 40 fold
